Reference: US9029376B2, “Small molecule inhibitors for the treatment or prevention of dengue virus infection” (Siga Technologies, Inc., priority 2008, dated 2015)
Like-named read-outs stand apart in the source and are kept apart here.

What was measured:
[1] = tested on: dengue; conditions: mouse model; cited from earlier work
[2] = tested on: dengue; conditions: cited from earlier work
[3] = tested on: Dengue-2 (Strain New Guinea C); assay: Dengue-2 viral yield assay in Vero cells; assay type: cell-based; conditions: Dengue virus, read-out: Activity (anti-dengue 2 viral activity, EC50)
Description: Compounds that were active in the primary screen were tested for activity in viral yield assays. […] Vero cells in 12-well plates were infected with dengue-2 virus at a multiplicity of infection (MOI) of 0.1, treated with compound (or DMSO as a control), incubated at 37° C., harvested 48 hours post infection and titered on Vero cells as described above. The EC50 was calculated through ExcelFit. Those compounds with activity below 1 μM are indicated with “A”, those with activity between 1 and 10 μM are indicated with “B”, and those with activity between 10 and 25 μM with “C”.

[4] = Cytotoxicity (cell proliferation assay, MTT or Alamar Blue); assay type: cell-based; conditions: flag printed in the Activity column of Table 1
Description: (§1) Initially, the chemical structures of the hit compounds were examined for chemical tractability. […] Hits that passed this medicinal chemistry filter were evaluated for their potency. Compound potency was determined by evaluating inhibitory activity across a broad range of concentrations. Nonlinear regression was used to generate best-fit inhibition curves and to calculate the 50% effective concentration (EC50). The selectivity or specificity of a given compound is typically expressed as a ratio of its cytotoxicity to its biological effect. A cell proliferation assay is used to calculate a 50% cytotoxicity concentration (CC50); the ratio of this value to the EC50 is referred to as the therapeutic index (T.I.=CC50/EC50). Two types of assays have been used to determine cytotoxicity, both of which are standard methods for quantitating the reductase activity produced in metabolically active cells (30). One is a colorimetric method that measures the reduction of 3-(4,5-dimethylthiazol-2-yl)-2,5-diphenyl-tetrazolium bromide (MTT), and the other uses fluorimetry to measure the reduction of resazurin (Alamar Blue). […] Verification that these compounds act against each of the four serotypes of dengue was done with yield assays carried out at several drug concentrations, and the titer determined for each.

[5] = tested on: all four serotypes of dengue; assay: Yield assay against each serotype of dengue virus in vero cells; assay type: cell-based; conditions: FIG. 1
Description: as §1, with “each. […]” for “each.”

[6] = Dengue-2 strain New Guinea C, Vero cells, MOI 0.1, harvested 48 hours post infection, viral yield

Compound | EC50 [3, 6] [µM] | other results
NC(=O)c1ncn([C@@H]2O[C@H](CO)[C@@H](O)[C@H]2O)n1 [ribavirin] | – | protection against dengue [1]: did not show protection against dengue; adverse effects induced ([2]; animal model not specified in the sentence (mouse or rhesus monkey)): induced anemia and thrombocytosis; protection against dengue ([2]; rhesus monkey model): did not show protection against dengue
O=C1CC(Sc2nc3ccccc3s2)C(=O)N1Cc1ccccc1 (stereo not shown) [Compound 4, 3-(Benzothiazol-2-ylsulfanyl)-1-benzyl-pyrrolidine-2,5-dione] | < 1 | toxic (flag beside activity class) [4]: toxic
NC(=O)C1(N2CCCCC2)CCN(C(=O)CSc2nc3ccccc3o2)CC1 [Compound 3, 1′-[2-(Benzooxazol-2-ylsulfanyl)-acetyl]-[1,4′]bipiperidinyl-4′-carboxylic acid amide] | – | EC50 ([3]; Vero, 48 h): < 1 µM; activity against dengue serotypes [5]: activity against all four serotypes of dengue
COc1ccccc1C(=O)C1CCCN(C(=O)CSc2nc3cc(C)ccc3[nH]2)C1 (stereo not shown) [Compound 12, 1-[3-(2-Methoxy-benzoyl)-piperidin-1-yl]-2-(5-methyl-1H-benzoimidazol-2-ylsulfanyl)-ethanone] | 1 to 10 | toxic (flag beside activity class) [4]: toxic
O=C(Nc1ccc2nc(SCC(=O)N3CCOCC3)sc2c1)c1ccc(Cl)cc1Cl [Compound 6, 2,4-Dichloro-N-[2-(2-morpholin-4-yl-2-oxo-ethylsulfanyl)-benzothiazol-6-yl]-benzamide] | – | EC50 ([3]; Vero, 48 h): 1 to 10 µM
O=C(CSc1nc2ccc(/N=C/c3ccc(F)cc3)cc2s1)N1CCOCC1 [Compound 26, 2-(6-{[1-(4-Fluoro-phenyl)-meth-(E)-ylidene]-amino}-benzothiazol-2-ylsulfanyl)-1-morpholin-4-yl-ethanone] | > 25 | –
O=C(CSc1nc2ccccc2[nH]1)N1CCOCC1 [Compound 42, 2-(1H-Benzoimidazol-2-ylsulfanyl)-1-morpholin-4-yl-ethanone] | > 25 | –
O=C(CSc1nc2ccccc2o1)N1CCN(Cc2ccccc2)CC1 [Compound 11, 2-(Benzooxazol-2-ylsulfanyl)-1-(4-benzyl-piperazin-1-yl)-ethanone] | 1 to 10 | –
O=C(CSc1nc2ccc([N+](=O)[O-])cc2s1)N1CCCC1 [Compound 55, 2-(6-Nitro-benzothiazol-2-ylsulfanyl)-1-pyrrolidin-1-yl-ethanone] | > 25 | –
O=C(CSc1nc2ccc(/N=C/c3ccc(Cl)cc3)cc2s1)N1CCOCC1 [Compound 18, 2-(6-{[1-(4-Chloro-phenyl)-meth-(E)-ylidene]-amino}-benzothiazol-2-ylsulfanyl)-1-morpholin-4-yl-ethanone] | > 25 | –
O=C(CSc1nc2ccccc2[nH]1)N1CCCCCC1 [Compound 43, 1-Azepan-1-yl-2-(1H-benzoimidazol-2-ylsulfanyl)-ethanone] | > 25 | –
